According to ChEMBL document CHEMBL1150004, “A general approach toward the design of mechanism-based inactivators of serine proteinases: inactivation of human leukocyte elastase by a phthalimide derivative” (Bioorg Med Chem Lett, 1993):

Target: T1, Neutrophil elastase (Homo sapiens) (UniProt P08246)
T1 sequence (whole entry): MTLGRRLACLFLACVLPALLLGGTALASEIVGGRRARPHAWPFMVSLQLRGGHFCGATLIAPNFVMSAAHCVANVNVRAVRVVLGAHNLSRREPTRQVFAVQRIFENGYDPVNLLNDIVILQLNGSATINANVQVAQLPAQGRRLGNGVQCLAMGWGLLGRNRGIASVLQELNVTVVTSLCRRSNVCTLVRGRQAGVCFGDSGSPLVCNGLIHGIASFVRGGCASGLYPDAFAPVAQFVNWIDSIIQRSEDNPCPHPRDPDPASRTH
Experiment: Bimolecular rate constant of the interaction of compound with Human Leukocyte Elastase was evaluated

K obs / 1: 40 M⁻¹ s⁻¹
SMILES: CCOC(=O)C(F)N1C(=O)c2ccccc2C1=O (stereo unspecified)
